Biological target: T1, Gonadotropin-releasing hormone receptor (Homo sapiens, UniProt P30968)
T1 sequence (P30968 whole entry): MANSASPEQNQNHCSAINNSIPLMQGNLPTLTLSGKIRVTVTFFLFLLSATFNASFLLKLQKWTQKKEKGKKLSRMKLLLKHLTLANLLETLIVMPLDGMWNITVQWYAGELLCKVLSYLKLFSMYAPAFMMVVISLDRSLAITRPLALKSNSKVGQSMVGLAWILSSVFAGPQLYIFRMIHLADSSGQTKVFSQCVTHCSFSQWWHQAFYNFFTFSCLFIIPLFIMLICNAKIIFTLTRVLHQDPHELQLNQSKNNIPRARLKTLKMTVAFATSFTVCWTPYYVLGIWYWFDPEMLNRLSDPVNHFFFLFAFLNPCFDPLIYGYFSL
Assay: Binding affinity towards cloned human Gonadotropin-releasing hormone receptor expressed in RBL cells was determined by using [125I]GnRH as radioligand
Format: cell-based

| Compound | Ki [nM] |
| --- | --- |
| COc1ccccc1Nc1nc(-c2c(C)n(Cc3c(F)cccc3F)c(=O)n(C[C@H](N)c3ccccc3)c2=O)cs1 | 130 |
| Cc1c(-c2ccc(Cl)cc2)c(=O)n(C[C@H](N)c2ccccc2)c(=O)n1Cc1c(F)cccc1F | 14 |
| COc1ccc(Nc2nc(-c3c(C)n(Cc4c(F)cccc4F)c(=O)n(C[C@H](N)c4ccccc4)c3=O)cs2)cc1OC | 33 |
| Cc1c(-c2csc(Nc3ccccc3)n2)c(=O)n(C[C@H](N)c2ccccc2)c(=O)n1Cc1c(F)cccc1F | 70 |
| Cc1c(-c2csc(-c3ccc(C(F)(F)F)cc3)n2)c(=O)n(C[C@H](N)c2ccccc2)c(=O)n1Cc1c(F)cccc1F | 47 |
| Cc1c(-c2csc(Nc3ccc([N+](=O)[O-])cc3)n2)c(=O)n(C[C@H](N)c2ccccc2)c(=O)n1Cc1c(F)cccc1F | 160 |
| Cc1ccc(Nc2nc(-c3c(C)n(Cc4c(F)cccc4F)c(=O)n(C[C@H](N)c4ccccc4)c3=O)cs2)cc1 | 49 |
| Cc1c(-c2csc(NCc3ccccc3)n2)c(=O)n(C[C@H](N)c2ccccc2)c(=O)n1Cc1c(F)cccc1F | 35 |
| COc1ccc(Nc2nc(-c3c(C)n(Cc4c(F)cccc4F)c(=O)n(C[C@H](N)c4ccccc4)c3=O)cs2)cc1 | 42 |
| Cc1ccccc1Nc1nc(-c2c(C)n(Cc3c(F)cccc3F)c(=O)n(C[C@H](N)c3ccccc3)c2=O)cs1 | 210 |
| Cc1c(-c2csc(-c3ccc4c(c3)CCO4)n2)c(=O)n(C[C@H](N)c2ccccc2)c(=O)n1Cc1c(F)cccc1F | 20 |
| CCOC(=O)Nc1ccc(-c2nc(-c3c(C)n(Cc4c(F)cccc4F)c(=O)n(C[C@H](N)c4ccccc4)c3=O)cs2)cc1 | 7 |
| Cc1c(-c2csc(-c3cccc(C(F)(F)F)c3)n2)c(=O)n(C[C@H](N)c2ccccc2)c(=O)n1Cc1c(F)cccc1F | 150 |
| Cc1c(-c2csc(Cc3ccccc3)n2)c(=O)n(C[C@H](N)c2ccccc2)c(=O)n1Cc1c(F)cccc1F | 9 |
| Cc1c(-c2csc(N(C)c3ccccc3)n2)c(=O)n(C[C@H](N)c2ccccc2)c(=O)n1Cc1c(F)cccc1F | 34 |
| Cc1c(-c2csc(-c3ccc(C(C)(C)C)cc3)n2)c(=O)n(C[C@H](N)c2ccccc2)c(=O)n1Cc1c(F)cccc1F | 500 |
| Cc1ccc(Nc2nc(-c3c(C)n(Cc4c(F)cccc4F)c(=O)n(C[C@H](N)c4ccccc4)c3=O)cs2)c(C)c1 | 130 |
| Cc1ccc(-c2nc(-c3c(C)n(Cc4c(F)cccc4F)c(=O)n(C[C@H](N)c4ccccc4)c3=O)cs2)cc1F | 49 |
| Cc1c(-c2ccc(Cl)s2)c(=O)n(C[C@H](N)c2ccccc2)c(=O)n1Cc1c(F)cccc1F | 2 |

Now from value to compound:

| Ki [nM] | Compound |
| --- | --- |
| 26 | Cc1c(-c2csc(-c3ccccc3)n2)c(=O)n(C[C@H](N)c2ccccc2)c(=O)n1Cc1c(F)cccc1F |
| 42 | Cc1c(-c2csc(-c3ccc(F)cc3)n2)c(=O)n(C[C@H](N)c2ccccc2)c(=O)n1Cc1c(F)cccc1F |
| 15 | Cc1c(-c2csc(-c3ccc(Cl)cc3)n2)c(=O)n(C[C@H](N)c2ccccc2)c(=O)n1Cc1c(F)cccc1F |
| 10 | Cc1c(-c2cccs2)c(=O)n(C[C@H](N)c2ccccc2)c(=O)n1Cc1c(F)cccc1F |
| 30 | Cc1c(-c2csc(-c3ccccc3Cl)n2)c(=O)n(C[C@H](N)c2ccccc2)c(=O)n1Cc1c(F)cccc1F |
| 1500 | Cc1c(-c2csc(N3CCOCC3)n2)c(=O)n(C[C@H](N)c2ccccc2)c(=O)n1Cc1c(F)cccc1F |
| 3 | Cc1ccc(-c2c(C)n(Cc3c(F)cccc3F)c(=O)n(C[C@H](N)c3ccccc3)c2=O)s1 |
| 120 | Cc1nc(-c2c(C)n(Cc3c(F)cccc3F)c(=O)n(C[C@H](N)c3ccccc3)c2=O)cs1 |
| 18 | Cc1ccc(-c2nc(-c3c(C)n(Cc4c(F)cccc4F)c(=O)n(C[C@H](N)c4ccccc4)c3=O)cs2)cc1 |
| 3000 | Cc1c(-c2csc(N)n2)c(=O)n(C[C@H](N)c2ccccc2)c(=O)n1Cc1c(F)cccc1F |
| 270 | CCNc1nc(-c2c(C)n(Cc3c(F)cccc3F)c(=O)n(C[C@H](N)c3ccccc3)c2=O)cs1 |

Test system: not listed separately
Assay: In vitro intrinsic clearance after incubation with human liver microsomes (HLM)
Format: ADME, Microsome

| CLint scaled [mL/min/kg] | Compound |
| --- | --- |
| 46 | Cc1c(-c2csc(-c3ccc(Cl)cc3)n2)c(=O)n(C[C@H](N)c2ccccc2)c(=O)n1Cc1c(F)cccc1F |
| 1700 | COc1cccc(-c2c(C)n(Cc3c(F)cccc3F)c(=O)n(C[C@@H](C)N(C)Cc3ccccn3)c2=O)c1 |
| 36 | Cc1ccc(-c2nc(-c3c(C)n(Cc4c(F)cccc4F)c(=O)n(C[C@H](N)c4ccccc4)c3=O)cs2)cc1 |

Source: ChEMBL document CHEMBL1137039, “Synthesis and structure-activity relationships of uracil derived human GnRH receptor antagonists: (R)-3-[2-(2-amino)phenethyl]-1-(2,6-difluorobenzyl)-6-methyluracils containing a substituted thiophene or thiazole at C-5” (Bioorg Med Chem Lett, 2004)
